# Patent US8420630B2 (Boehringer Ingelheim Pharma GmbH & Co. KG, priority 2001, dated 2013)
# Target: T1, CDK1/cyclinB1 (Homo sapiens, UniProt P06493)
# T1 construct: made in house; host or cells: High Five insect cells (Trichoplusia ni), baculovirus coinfection
# Test: Cyclin B1-CDK1 kinase inhibition test
# Type: biochemical
# Conditions: CDK1 tests (Example 13); recombinant cyclin B1/CDK1, substrate histone H1; read-out: CDK1/cyclinB1 IC50 value
# Summary of the method: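 Baculovirus-expressed CDK1/cyclin B1 phosphorylated histone H1 with ATP mix containing 0.045 mM ATP plus ^33P-ATP for 30 min at 30 °C. Protein was precipitated with TCA and filter-bound radioactivity read by scintillation counting. Olomoucin at 30 and 300 μM final served as internal control.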
# T1 sequence (P06493 whole entry): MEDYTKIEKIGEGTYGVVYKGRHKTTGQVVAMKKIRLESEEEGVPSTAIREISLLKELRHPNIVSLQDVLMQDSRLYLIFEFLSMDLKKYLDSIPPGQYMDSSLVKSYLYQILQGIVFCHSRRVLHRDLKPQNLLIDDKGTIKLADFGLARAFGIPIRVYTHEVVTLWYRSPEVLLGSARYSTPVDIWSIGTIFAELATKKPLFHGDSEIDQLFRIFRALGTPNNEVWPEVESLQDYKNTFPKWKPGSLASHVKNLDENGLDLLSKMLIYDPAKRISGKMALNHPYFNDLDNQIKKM
# T1 sequence (P14635 whole entry partner): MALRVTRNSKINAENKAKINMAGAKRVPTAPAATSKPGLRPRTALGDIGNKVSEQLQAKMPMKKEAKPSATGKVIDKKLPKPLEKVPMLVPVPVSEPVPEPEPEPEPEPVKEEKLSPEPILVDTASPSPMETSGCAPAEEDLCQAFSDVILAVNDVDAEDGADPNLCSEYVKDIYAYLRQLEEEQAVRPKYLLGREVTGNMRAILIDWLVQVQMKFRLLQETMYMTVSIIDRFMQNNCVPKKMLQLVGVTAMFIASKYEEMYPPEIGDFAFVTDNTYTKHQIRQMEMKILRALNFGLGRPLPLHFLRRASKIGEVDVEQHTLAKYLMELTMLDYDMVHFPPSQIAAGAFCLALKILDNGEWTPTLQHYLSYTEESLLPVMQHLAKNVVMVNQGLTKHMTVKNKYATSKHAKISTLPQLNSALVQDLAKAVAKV
row,Compound,IC50
1,"CC(=O)NCCNc1nc(Nc2ccc(Cl)c(C(F)(F)F)c2)ncc1C(F)(F)F [Example 2(013), 2-(4-chloro-3-trifluoromethyl-phenylamino)-4-(2-acetylamino-ethylamino)-5-trifluoromethyl-pyrimidine]",< 100 nM
2,"CC(=O)NCCNc1nc(Nc2cc(Cl)cc(Cl)c2)ncc1C(F)(F)F [Example 2(015), 2-(3,5-Dichloro-phenylamino)-4-(2-acetylamino-ethylamino)-5-trifluoromethyl-pyrimidine]",< 100 nM
3,"O=C1CCCN1CCCNc1nc(Nc2ccc3[nH]nnc3c2)ncc1C(F)(F)F [Example 2(036), 1-{3-[2-(1H-Benzotriazol-5-ylamino)-5-trifluoromethyl-pyrimidin-4-ylamino]-propyl}-pyrrolidin-2-one]",< 100 nM
4,"O=C1CCCN1CCCNc1nc(Nc2ccc3[nH]cnc3c2)ncc1C(F)(F)F [Example 2(037), 1-{3-[2-(1H-Benzimidazol-5-ylamino)-5-trifluoromethyl-pyrimidin-4-ylamino]-propyl}-pyrrolidin-2-one]",< 100 nM
5,"O=C1CCCN1CCCNc1nc(Nc2ccc3cn[nH]c3c2)ncc1C(F)(F)F [Example 2(038), 1-{3-[2-(1H-Indazol-6-ylamino)-5-trifluoromethyl-pyrimidin-4-ylamino]-propyl}-pyrrolidin-2-one]",< 100 nM
6,"CC(=O)NCCNc1nc(Nc2ccc3[nH]nnc3c2)ncc1C(F)(F)F [Example 2(042), N-{2-[2-(1H-Benzotriazol-5-ylamino)-5-trifluoromethyl-pyrimidin-4-ylamino]-ethyl}-acetamide]",< 100 nM
7,"CC(=O)NCCNc1nc(Nc2ccc3[nH]cnc3c2)ncc1C(F)(F)F [Example 2(043), N-{2-[2-(1H-Benzimidazol-5-ylamino)-5-trifluoromethyl-pyrimidin-4-ylamino]-ethyl}-acetamide]",< 100 nM
8,"CC(=O)NCCNc1nc(Nc2ccc3cn[nH]c3c2)ncc1C(F)(F)F [Example 2(044), N-{2-[2-(1H-Indazol-6-ylamino)-5-trifluoromethyl-pyrimidin-4-ylamino]-ethyl}-acetamide]",< 100 nM
9,"O=C1CCCN1CCCNc1nc(Nc2ccc3cn[nH]c3c2)ncc1Cl [Example 2(048), 1-{3-[5-chloro-2-(1H-indazol-6-ylamino)-pyrimidin-4-ylamino]-propyl}-pyrrolidin-2-on]",< 100 nM
10,"O=C1CCCN1CCCNc1nc(Nc2ccc(CO)cc2)ncc1C(F)(F)F [Example 2(052), 1-{3-[2-(4-Hydroxymethyl-phenylamino)-5-trifluoromethyl-pyrimidin-4-ylamino]-propyl}-pyrrolidin-2-one]",< 100 nM
11,"Cc1cnc(Nc2ccc3cn[nH]c3c2)nc1NCCCN1CCCC1=O [Example 2(075), 1-{3-[2-(1H-indazol-6-ylamino)-5-methyl-pyrimidin-4-ylamino]-propyl}-pyrrolidin-2-one]",< 100 nM
12,"O=C1CCCN1CCCNc1nc(Nc2ccc(-c3nn[nH]n3)cc2)ncc1C(F)(F)F [Example 2(076), 1-(3-{2-[4-(2H-tetrazol-5-yl)-phenylamino]-5-trifluoromethyl-pyrimidin-4-ylamino}-propyl)-pyrrolidin-2-one]",< 100 nM
13,"O=C1CCCN1CCCNc1nc(Nc2ccc3cn[nH]c3c2)ncc1Br [Example 2(106), 1-{3-[5-Bromo-2-(1H-indazol-6-ylamino)-pyrimidin-4-ylamino]-propyl}-pyrrolidin-2-one]",< 100 nM
14,"CN(C)S(=O)(=O)c1ccc(Nc2ncc(Cl)c(NCCCN3CCCC3=O)n2)cc1 [Example 2(109), 4-{5-Chloro-4-[3-(2-oxo-pyrrolidin-1-yl)-propylamino]-pyrimidin-2-ylamino}-N,N-dimethyl-phenylsulphonamide]",< 100 nM
15,"Clc1cnc(Nc2ccc3cn[nH]c3c2)nc1N1CCc2[nH]cnc2C1 [Example 2(134), [5-Chloro-4-(1,4,6,7-tetrahydro-imidazo[4,5-c]pyridin-5-yl)-pyrimidin-2-yl]-(1H-indazol-6-yl)-amine]",< 100 nM
16,"CN(C)S(=O)(=O)c1ccc(Nc2ncc(Cl)c(N3CCc4[nH]cnc4C3)n2)cc1 [Example 2(136), 4-[5-Chloro-4-(1,4,6,7-tetrahydro-imidazo[4,5-c]pyridin-5-yl)-pyrimidin-2-ylamino]-N,N-dimethyl-phenylsulphonamide]",< 100 nM
17,"Brc1cnc(Nc2ccc3cn[nH]c3c2)nc1N1CCc2nc[nH]c2CC1 [Example 2(141), [5-Bromo-4-(4,5,7,8-tetrahydro-1H-imidazo[4,5-d]azepin-6-yl)-pyrimidin-2-yl]-(1H-indazol-6-yl)-amine]",< 100 nM
18,"Brc1cnc(Nc2ccc3cn[nH]c3c2)nc1N1CCc2[nH]cnc2C1 [Example 2(142), [5-Bromo-4-(1,4,6,7-tetrahydro-imidazo[4,5-c]pyridin-5-yl)-pyrimidin-2-yl]-(1H-indazol-6-yl)-amine]",< 100 nM
19,"C#Cc1cnc(Nc2ccc(S(=O)(=O)N(C)C)cc2)nc1NCCNC(C)=O [Example 4(001), N-{2-[2-(4-dimethylsulphamoyl-phenylamino)-5-ethynyl-pyrimidin-4-ylamino]-ethyl}-acetamide]",< 100 nM
20,"CS(=O)(=O)NCCNc1nc(Nc2ccc(Cl)c(Cl)c2)ncc1C(F)(F)F [Example 7(001), N-(2-[2-(3,4-dichloro-phenylamino)-5-trifluoromethyl-pyrimidin-4-ylamino]-ethyl)-methanesulphonamide]",< 100 nM

# Continued, values first:
row,IC50,Compound
1,< 100 nM,"CC(=O)NCCNc1nc(Nc2ccc(N(C)S(C)(=O)=O)cc2)ncc1C(F)(F)F [Example 2(011), 2-(4-(N-Methyl-N-methylsulphonyl)amino-phenylamino)-4-(2-acetylamino-ethylamino)-5-trifluoromethyl-pyrimidine]"
2,< 100 nM,"CC(=O)NCCNc1nc(Nc2cccc(Br)c2)ncc1C(F)(F)F [Example 2(012), 2-(3-bromo-phenylamino)-4-(2-acetylamino-ethylamino)-5-trifluoromethyl-pyrimidine]"
3,< 100 nM,"CC(=O)NCCNc1nc(Nc2ccc(Br)c(Cl)c2)ncc1C(F)(F)F [Example 2(014), 2-(4-bromo-3-chloro-phenylamino)-4-(2-acetylamino-ethylamino)-5-trifluoromethyl-pyrimidine]"
4,< 100 nM,"CC(=O)NCCNc1nc(Nc2ccc(Cl)cc2)ncc1C(F)(F)F [Example 2(016), 2-(4-chloro-phenylamino)-4-(2-acetylamino-ethylamino)-5-trifluoromethyl-pyrimidine]"
5,< 100 nM,"CN(C)S(=O)(=O)c1ccc(Nc2ncc(C(F)(F)F)c(NCCCN3CCCC3=O)n2)cc1 [Example 2(041), N,N-Dimethyl-4-{4-[3-(2-oxo-pyrrolidin-1-yl)-propylamino]-5-trifluoromethyl-pyrimidin-2-ylamino}-phenylsulphonamide]"
6,< 100 nM,"CC(=O)NCCNc1nc(Nc2ccc3[nH]ncc3c2)ncc1C(F)(F)F [Example 2(045), N-{2-[2-(1H-Indazol-5-ylamino)-5-trifluoromethyl-pyrimidin-4-ylamino]-ethyl}-acetamide]"
7,< 100 nM,"CC(=O)NCCNc1nc(Nc2ccc(-c3nn[nH]n3)cc2)ncc1C(F)(F)F [Example 2(046), N-(2-{2-[4-(2H-Tetrazol-5-yl)-phenylamino]-5-trifluoromethyl-pyrimidin-4-ylamino}-ethyl)-acetamide]"
8,< 100 nM,"CC(=O)NCCNc1nc(Nc2ccc(S(=O)(=O)N(C)C)cc2)ncc1C(F)(F)F [Example 2(047), N-{2-[2-(4-Dimethylsulphamoyl-phenylamino)-5-trifluoromethyl-pyrimidin-4-ylamino]-ethyl}-acetamide]"
9,< 100 nM,"O=C1NCCN1CCNc1nc(Nc2ccc(S(=O)(=O)N3CCOCC3)cc2)ncc1C(F)(F)F [Example 2(051), 1-(2-{2-[4-(Morpholin-4-sulphonyl)-phenylamino]-5-trifluoromethyl-pyrimidin-4-ylamino}-ethyl)-imidazolidin-2-one]"
10,< 100 nM,"CC(=O)NCCNc1nc(Nc2ccc(CC(=O)N(C)C)cc2)ncc1C(F)(F)F [Example 2(053), 2-{4-[4-(2-Acetylamino-ethylamino)-5-trifluoromethyl-pyrimidin-2-ylamino]-phenyl}-N,N-dimethyl-acetamide]"
11,< 100 nM,"CC(=O)NCCNc1nc(Nc2ccc(S(=O)(=O)N3CCOCC3)cc2)ncc1C(F)(F)F [Example 2(057), N-(2-{2-[4-(Morpholin-4-sulphonyl)-phenylamino]-5-trifluoromethyl-pyrimidin-4-ylamino}-ethyl)-acetamide]"
12,< 100 nM,"CC(=O)NCCNc1nc(Nc2ccc(S(=O)(=O)N3CCN(C)CC3)cc2)ncc1C(F)(F)F [Example 2(058), N-(2-{2-[4-(4-Methyl-piperazin-1-sulphonyl)-phenylamino]-5-trifluoromethyl-pyrimidin-4-ylamino}-ethyl)-acetamide]"
13,< 100 nM,"CC(=O)NCCNc1nc(Nc2ccc(S(=O)(=O)Nc3ccccn3)cc2)ncc1C(F)(F)F [Example 2(059), N-(2-{2-[4-(Pyridin-2-ylsulphamoyl)-phenylamino]-5-trifluoromethyl-pyrimidin-4-ylamino}-ethyl)-acetamide]"
14,< 100 nM,"CC(=O)NCCNc1nc(Nc2ccc(S(=O)(=O)N3CCCNCC3)cc2)ncc1C(F)(F)F [Example 2(060), N-(2-{2-[4-(Perhydro-1,4-diazepin-1-sulphonyl)-phenylamino]-5-trifluoromethyl-pyrimidin-4-ylamino}-ethyl)-acetamide]"
15,< 100 nM,"CC(=O)NCCNc1nc(Nc2ccc(S(=O)(=O)N3CC(C)NC(C)C3)cc2)ncc1C(F)(F)F (stereo not drawn) [Example 2(061), N-(2-{2-[4-(3,5-Dimethyl-piperazin-1-sulphonyl)-phenylamino]-5-trifluoromethyl-pyrimidin-4-ylamino}-ethyl)-acetamide]"
16,< 100 nM,"CC(=O)NCCNc1nc(Nc2ccccc2)ncc1C(F)(F)F [Example 2(062), N-[2-(2-phenylamino-5-trifluoromethylpyrimidin-4-ylamino)-ethyl]-acetamide]"
